The values that follow come from patent publication US4857521A, “Trialkylsilyl pyridinium cephalosporin antibiotics” (Sanwa Kagaku Kenkyusho Co., Ltd., priority 1986, dated 1989).

Holding throughout (format): cell-based
In test [1] the test system is S. typhi T-287. Briefly: MIC by agar plate dilution method, S. typhi T-287. As to conditions: seeding 10^6 cells/ml; for MIC: Salmonella enterica, read-out: minimum inhibitory concentration (MIC). On the procedure:
(§1) Each series of dilution was prepared with use of testing compounds prepared by the Examples and control compound of Gentamicin as well as a liquid medium. The minimum inhibitory concentration (MIC in μg/ml) to each pathogen (seeding amount: 10^6 cells/ml) was determined, in accordance with the standard method (agar plate dilution method) by the Chemotherapy Society of Japan.

For test [2], the system named is E. coli NIH. The test can be described thus: MIC by agar plate dilution method, E. coli NIH. Conditions: seeding 10^6 cells/ml; for MIC: Escherichia coli, read-out: minimum inhibitory concentration (MIC). The procedure: as §1
For test [3], the system named is P. aeruginosa Nc-5. Briefly: MIC by agar plate dilution method, P. aeruginosa Nc-5. Conditions: for MIC: Pseudomonas aeruginosa, NC5, seeding 10^6 cells/ml, read-out: minimum inhibitory concentration (MIC). On the procedure: as §1
In test [4] the test system is P. rettgeri NIH 96. The test can be described thus: MIC by agar plate dilution method, P. rettgeri NIH 96. As to conditions: for MIC: Providencia rettgeri, NIH96, seeding 10^6 cells/ml, read-out: minimum inhibitory concentration (MIC). On the procedure:
as §1

Test [5] has as its system S. flexneri 2a EW-10. Briefly: MIC by agar plate dilution method, S. flexneri 2a EW-10. As to conditions: Shigella flexneri, 2AEW10, seeding 10^6 cells/ml, read-out: minimum inhibitory concentration (MIC). The procedure: as §1
The test system of test [6] is E. coli K-12. The test can be described thus: MIC by agar plate dilution method, E. coli K-12. Conditions: for MIC: Escherichia coli, K12, seeding 10^6 cells/ml, read-out: minimum inhibitory concentration (MIC). The procedure: as §1
Test [7] deals with P. vulgaris OX-19. Briefly: MIC by agar plate dilution method, P. vulgaris OX-19. Conditions: for MIC: Proteus vulgaris, OX19, seeding 10^6 cells/ml, read-out: minimum inhibitory concentration (MIC). The procedure: as §1
Test [8] has as its system C. fleundii NIH 10018-68. Briefly: MIC by agar plate dilution method, C. fleundii NIH 10018-68. As to conditions: for MIC: read-out: minimum inhibitory concentration (MIC). The procedure:
as §1

Test [9] relates to K. pneumoniae NCTC 9632. The test can be described thus: MIC by agar plate dilution method, K. pneumoniae NCTC 9632. As to conditions: for MIC: Klebsiella pneumoniae, NCTC9632, seeding 10^6 cells/ml, read-out: minimum inhibitory concentration (MIC). The procedure: as §1

Counter-ions that a name gives are not always drawn.

Regarding `CO/N=C(\C(=O)N[C@@H]1C(=O)N2C(C(=O)[O-])=C(C[n+]3cccc([Si](C)(C)C)c3)CS[C@H]12)c1csc(N)n1` [Example 1, [6R-[6α,7β(Z)]]-1-[7-[[(2-Amino-4-thiazolyl)(methoxyimino)acetyl]amino]-2-carboxy-8-oxo-5-thia-1-azabicyclo[4,2,0]oct-2-en-3-yl]methyl-3-trimethylsilylpyridinium hydroxide, inner salt], the MIC in test [1] is below 0.2 µg/mL; in [2] it was below 0.2 µg/mL; in test [3] it was 1.56 µg/mL; in test [4] it was below 0.2 µg/mL; in test [5] it was below 0.2 µg/mL; in test [6] it was 0.39 µg/mL. The MIC in test [7] is below 0.2 µg/mL; in [8], below 0.2 µg/mL; in [9] it was 0.39 µg/mL.

In the case of `CO/N=C(\C(=O)N[C@@H]1C(=O)N2C(C(=O)[O-])=C(C[n+]3ccc([Si](C)(C)C)cc3)CS[C@H]12)c1csc(N)n1` [Example 2, [6R-[6α,7β(Z)]]-1-[7-[[(2-Amino-4-thiazolyl)(methoxyimino)acetyl]amino]-2-carboxy-8-oxo-5-thia-1-azabicyclo[4,2,0]oct-2-en-3-yl]methyl-4-trimethylsilylpyridinium hydroxide, inner salt], the MIC in test [1] was 0.39 µg/mL; in test [2], below 0.2 µg/mL; in test [3] it was 6.25 µg/mL; in [4], below 0.2 µg/mL; in [5], 0.39 µg/mL; in test [6], 0.78 µg/mL. Besides, the values for the MIC in test [7], in [8] and in [9] were below 0.2 µg/mL, below 0.2 µg/mL and 0.78 µg/mL, respectively.

`CO/N=C(\C(=O)N[C@@H]1C(=O)N2C(C(=O)[O-])=C(C[n+]3ccc(OC)c([Si](C)(C)C)c3)CS[C@H]12)c1csc(N)n1` [Example 3, [6R-[6α,7β(Z)]]-1-[7-[[(2-Amino-4-thiazolyl)(methoxyimino)acetyl]amino]-2-carboxy-8-oxo-5-thia-1-azabicyclo[4,2,0]oct-2-en-3-yl]methyl-4-methoxy-3-trimethylsilylpyridinium hydroxide, inner salt]: the MIC is 0.39 µg/mL in test [1]; 0.78 µg/mL in test [2]; 6.25 µg/mL in [3]; below 0.2 µg/mL in test [4]; 0.39 µg/mL in test [5]; 0.78 µg/mL in [6]. Further, the MIC was below 0.2 µg/mL in test [7], 0.78 µg/mL in test [8] and 0.78 µg/mL in [9].

As to Gentamicin [reference compound], the “minimum inhibitory concentration (MIC)” value in test [1] is 0.78 µg/mL; in test [2], 0.78 µg/mL; in test [3] (seeding 10^6 cells/ml) it was 3.13 µg/mL; in [4] (seeding 10^6 cells/ml), below 0.20 µg/mL; in test [6] (seeding 10^6 cells/ml), 0.78 µg/mL; in test [7] (seeding 10^6 cells/ml), 3.13 µg/mL. The “minimum inhibitory concentration (MIC)” value in test [8] (C. fleundii NIH 10018-68, seeding 10^6 cells/ml, agar plate dilution) was 0.39 µg/mL; in test [9] (seeding 10^6 cells/ml) it was 0.78 µg/mL.
